Test results as given in PubChem BioAssay (NCI).
“And” between values parts separate entries of the source, which are not always exact repeats. Equal entries are not always repeated.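 The compound was tested at five concentrations on cells cultured in 96-well plates, with a 48-hour exposure period. Here, GI50 denotes the concentration required for 50% inhibition of growth. At the TGI there is no net growth.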

Columns and labels:
Assay in all cases: inhibition of tumour cell growth, NCI panel, 48 h
SK-MEL-28 melanoma = test system: SK-MEL-28 melanoma
HOP-62 NSCLC = test system: HOP-62 NSCLC
SN12C renal = test system: SN12C renal
KM12 colon = test system: KM12 colon
UACC-257 melanoma = test system: UACC-257 melanoma
SW-620 colon = test system: SW-620 colon
COLO 205 colon = test system: COLO 205 colon
LOX IMVI melanoma = test system: LOX IMVI melanoma
786-0 renal = test system: 786-0 renal
MDA-MB-231 breast = test system: MDA-MB-231 breast

| Structure (SMILES) | TGI (SK-MEL-28 melanoma) | TGI (HOP-62 NSCLC) | TGI (SN12C renal) | TGI (KM12 colon) | TGI (UACC-257 melanoma) | TGI (SW-620 colon) | TGI (COLO 205 colon) | TGI (LOX IMVI melanoma) | TGI (786-0 renal) | TGI (MDA-MB-231 breast) | GI50 (SK-MEL-28 melanoma) | GI50 (HOP-62 NSCLC) | GI50 (SN12C renal) | GI50 (KM12 colon) | GI50 (UACC-257 melanoma) | GI50 (SW-620 colon) | GI50 (COLO 205 colon) | GI50 (LOX IMVI melanoma) |
| --- | --- | --- | --- | --- | --- | --- | --- | --- | --- | --- | --- | --- | --- | --- | --- | --- | --- | --- |
| O=C(C(Cl)=C(N1CCCCC1)N1CCCCC1)C(Cl)Cl | > 100 µM | > 100 µM | > 100 µM | > 100 µM | > 100 µM | > 100 µM | > 100 µM | > 100 µM | > 100 µM | > 100 µM | – | – | – | – | – | – | – | – |
| C=Cc1nc(C#N)c(N)o1 | > 100 µM | > 100 µM | > 100 µM | > 100 µM | > 100 µM | > 100 µM | > 100 µM | > 100 µM | > 100 µM | > 100 µM | – | – | – | – | – | – | – | – |
| COC(=O)C1=CON2C3CC4CC(C3)CC(C4)C12C (configuration not stated) | > 100 µM | > 100 µM | > 100 µM | > 100 µM | > 100 µM | > 100 µM | > 100 µM | > 100 µM | > 100 µM | > 100 µM | – | – | – | – | – | – | – | – |
| CCOC(=O)C(NC(=O)CC)(Nc1ccc(F)c(Cl)c1)C(F)(F)F (configuration not stated) | > 100 µM | > 100 µM | > 100 µM | > 100 µM | > 100 µM | > 100 µM | > 100 µM | > 100 µM | > 100 µM | > 100 µM | – | – | – | – | – | – | – | – |
| CCOC(=O)C(=O)CC(=O)C1=C(c2ccccc2OC)CC(c2cccs2)=CC1=O | > 100 µM | > 100 µM | > 100 µM | > 100 µM | > 100 µM | > 100 µM | > 100 µM | > 100 µM | > 100 µM | > 100 µM | – | – | – | – | – | – | – | – |
| CNC(=S)NNc1ncnc2c1ncn2-c1ccc(C)cc1 | > 100 µM | > 100 µM | > 100 µM | > 100 µM | > 100 µM | > 100 µM | > 100 µM | > 100 µM | > 100 µM | > 100 µM | – | – | – | – | – | – | – | – |
| N#CC[N+]1(Cc2ccccn2)CCCC1 | > 100 µM | > 100 µM | > 100 µM | > 100 µM | > 100 µM | > 100 µM | > 100 µM | > 100 µM | > 100 µM | > 100 µM | – | – | – | – | – | – | – | – |
| Cc1cc(N(CCC#N)CCC#N)ccc1/C=C1\SC(=S)NC1=O | > 100 µM | > 100 µM | > 100 µM | > 100 µM | > 100 µM | > 100 µM | > 100 µM | > 100 µM | > 100 µM | > 100 µM | – | – | – | – | – | – | – | – |
| c1csc(-c2ccsc2-c2ccsc2)c1 | > 100 µM | > 100 µM | > 100 µM | > 100 µM | > 100 µM | > 100 µM | > 100 µM | > 100 µM | > 100 µM | > 100 µM | – | – | – | – | – | – | – | – |
| COc1cc(OC2OC(COC(=O)c3cc(O)c(O)c(O)c3)C(O)C(O)C2O)ccc1O (configuration not stated) | > 100 µM | > 100 µM | > 100 µM | > 100 µM | > 100 µM | > 100 µM | > 100 µM | > 100 µM | > 100 µM | > 100 µM | – | – | – | – | – | – | – | – |
| CCN(CC)CCOC(=O)Cc1cccc2c(=O)cc(-c3ccccc3)oc12 | 62.5 µM and > 237 µM | 62.5 µM and > 144 µM | 62.5 µM and > 320 µM | 62.5 µM and > 165 µM | 62.5 µM and > 154 µM | 62.5 µM and > 251 µM | – | 35.1 µM and > 240 µM | 62.5 µM | 57.2 µM | 115 µM | 25.9 µM | 92.8 µM | 83.5 µM | 67 µM | 123 µM | 439 µM | 45.3 µM |
| CCCCCN(CCCCC)CC(C)(C)C(O)c1ccc(OC)c2ccccc12 (configuration not stated) | 24.5 µM | > 100 µM | 25.2 µM | 25.4 µM | 26.1 µM | 27.3 µM | 40.6 µM | 4.99 µM | 35.7 µM | 31.2 µM | – | – | – | – | – | – | – | – |
| CC(=O)OCCCCn1cc(Cn2ccc(=O)n(Cc3cn(CCCCOC(C)=O)nn3)c2=O)nn1 | > 100 µM | > 100 µM | > 100 µM | > 100 µM | > 100 µM | > 100 µM | > 100 µM | > 100 µM | > 100 µM | > 100 µM | – | – | – | – | – | – | – | – |
| COc1ccc(N=C2C(=Nc3ccc(OC)cc3)N(c3ccc(N(C)C)cc3)C(=S)N2c2ccc(OC)cc2)cc1 | > 100 µM | > 100 µM | > 100 µM | > 100 µM | > 58.1 µM | > 100 µM | > 100 µM | > 100 µM | > 100 µM | > 100 µM | – | – | – | – | – | – | – | – |
| CC(=O)OC(C)(C)CCC(=O)[C@](C)(O)[C@H]1[C@H](O)C[C@@]2(C)[C@@H]3CC=C4C(C)=C(OC5OC(CO)C(O)C(O)C5O)C(=O)C[C@@H]4[C@]3(C)C(=O)C[C@]12C (some centres not stated) | > 100 µM | > 100 µM | > 100 µM | > 100 µM | > 100 µM | > 100 µM | > 100 µM | > 100 µM | > 100 µM | > 100 µM | – | – | – | – | – | – | – | – |
| Cc1cc(O)cc(O)c1C(=O)O[C@]1(C)C(=O)C=C2C=C(/C=C/C(=O)O)OC=C2C1=O | > 100 µM | > 100 µM | > 100 µM | > 100 µM | > 100 µM | > 100 µM | > 100 µM | > 100 µM | > 100 µM | > 100 µM | – | – | – | – | – | – | – | – |
| O=C(N/N=C(/COc1ccccc1Cl)N=Cc1ccncc1)c1ccncc1 | > 100 µM | > 100 µM | > 100 µM | > 100 µM | > 100 µM | > 100 µM | > 100 µM | > 100 µM | > 100 µM | > 100 µM | – | – | – | – | – | – | – | – |
| CCCCCCCCCCCCCCCCCC(=O)Nc1ccn(C2CCC(COP(=O)(O)O)O2)c(=O)n1 (configuration not stated) | > 100 µM | > 100 µM | > 100 µM | > 100 µM | > 100 µM | > 100 µM | > 100 µM | > 100 µM | > 100 µM | > 100 µM | – | – | – | – | – | – | – | – |
